Columns and labels:
[1] = system: Poria placenta; assay: In vitro malt agar test, colony diameter; format: cell-based; settings: assessed after 6 days
Procedure: (§1) A 50% SC of fluquinconazole (fq) was incorporated into malt agar at various rates and the agar placed into Petri dishes. Into the centre of each plate was implanted a 4 mm plug of the mycelium of a wood rotting fungus. The plates were kept at 20° C. in a darkened room for 6 days when the control of the fungus by the fluquinconazole was assessed. The experiment was also carried out with a fluquinconazole formulation containing di(2-ethylhexyl)octyl phosphonate (ph) with and without prochloraz (pz).

[2] = system: Coriolus versicolor; assay: In vitro malt agar test, colony diameter; format: cell-based; settings: assessed after 6 days
Procedure: as §1

[3] = system: Coniophora puteana; assay: In vitro malt agar test, colony diameter; format: cell-based; settings: assessed after 6 days
Procedure: as §1

[4] = system: wood rotting fungi (mainly basidiomycetes); assay: In vivo test of activity against wood destroying fungi (dipped pine pieces); settings: 100 ppm fluquinconazole, formulation containing di(2-ethylhexyl)octyl phosphonate, 5 weeks in sealed bag, compared with standards without pesticide
Procedure: Pieces of pine were dipped into a fluquinconazole formulation containing di(2-ethylhexyl)octyl phosphonate at different rates and then removed and put, whilst soaking wet, into a polythene bag which was sealed and left in a greenhouse for 5 weeks. The degree of control of wood rotting fungi (mainly basidiomycetes) was then assessed.

[5] = system: Gloephyllum trabeum; assay: In vitro malt agar test, colony diameter; format: cell-based; settings: assessed after 11 days
Procedure: as §1, with “The plates were kept at 20° C. in a darkened room for 6 days when the control of the fungus by the fluquinconazole was assessed.” left out

[6] = system: sapstain fungi; assay: In vivo test of activity against sapstain fungi (dipped pine bundles); settings: 50% suspension concentrate diluted to 0.25%, 60 s dip, after 4 weeks; compared with wood dipped only in water
From the text: Bundles consisting of 7 pieces of freshly cut pine (approximate sizes of 20 cm×30 cm) were dipped in a 50% suspension concentrate of fluquinconazole, diluted to 0.25%, for 60 seconds, ensuring each piece of wood was separated from its contacting pieces. The wood was removed from the liquid and allowed to drain for 10 seconds and then placed in an unsealed polythene bag at room temperature. The bag was used in order to maintain a high relative humidity, which promotes growth of sapstain. The wood was removed for examination after 4 weeks and divided into two in order to expose the centre of the bundles. These were assessed for sapstain infection.

**Q.** How did the “% Control based on colony diameter” value ([1]; 1 ppm) turn out when `O=c1c2cc(F)ccc2nc(-n2cncn2)n1-c1ccc(Cl)cc1Cl` [fluquinconazole, 3-(2,4-dichlorophenyl)-6-fluoro-2-(1H-1,2,4-triazol-1-yl)-4(3H)-quinazolinone] was run?
**A.** 99.4%

**Q.** What about the “% Control based on colony diameter” value ([1]; 5 ppm) of the same compound?
**A.** 100.0%

**Q.** What about the “% Control based on colony diameter” value ([1]; 10 ppm) of the same compound?
**A.** 100.0%

**Q.** What about the “% Control based on colony diameter” value ([1]; 25 ppm) of the same compound?
**A.** 100.0%

**Q.** And the “% Control based on colony diameter” value ([1]; 100 ppm)?
**A.** 100.0%

**Q.** What about the “% Control based on colony diameter” value ([2]; 1 ppm) of the same compound?
**A.** 100.0%

**Q.** What about the “% Control based on colony diameter” value ([2]; 5 ppm) of the same compound?
**A.** 100.0%

**Q.** What about the “% Control based on colony diameter” value ([2]; 10 ppm) of the same compound?
**A.** 100.0%

**Q.** And the “% Control based on colony diameter” value ([2]; 25 ppm)?
**A.** 100.0%

**Q.** And the “% Control based on colony diameter” value ([2]; 100 ppm)?
**A.** 100.0%

**Q.** And the “% Control based on colony diameter” value ([3]; 1 ppm)?
**A.** 50.4%

**Q.** And the “% Control based on colony diameter” value ([3]; 5 ppm)?
**A.** 75.6%

**Q.** And the “% Control based on colony diameter” value ([3]; 10 ppm)?
**A.** 84.7%

**Q.** What about the “% Control based on colony diameter” value ([3]; 25 ppm) of the same compound?
**A.** 68.7%

**Q.** What about the “% Control based on colony diameter” value ([3]; 100 ppm) of the same compound?
**A.** 77.9%

**Q.** What about the “control of wood rotting fungi” value [4] of the same compound?
**A.** 73.1%

**Q.** And the “% Control based on colony diameter” value ([5]; 1 ppm)?
**A.** 80.5%

**Q.** What about the “% Control based on colony diameter” value ([5]; 5 ppm) of the same compound?
**A.** 94.0%

**Q.** What about the “% Control based on colony diameter” value ([5]; 10 ppm) of the same compound?
**A.** 95.0%

**Q.** What about the “% Control based on colony diameter” value ([5]; 25 ppm) of the same compound?
**A.** 92.5%

**Q.** What about the “% Control based on colony diameter” value ([5]; 100 ppm) of the same compound?
**A.** 94.0%

**Q.** What about the “control of the sapstain” value [6] of the same compound?
**A.** > 60%

From patent US6399623B1, “Wood treatment” (Agrevo UK Ltd., priority 1998, dated 2002)
